Assay results from the NIST ThermoML archive (doi:10.1021/acs.jced.5b00436).
Numbers after ± are expanded uncertainties.

Test: refractive index (Na D-line) (dimensionless)
Details: 293.15 K; 101.33 kPa; Liquid; Standard Abbe refractometry

Compound	refractive index
OCC(F)(F)C(F)(F)C(F)(F)C(F)F [2,2,3,3,4,4,5,5-octafluoro-1-pentanol]	1.3171 ± 0.0005
CCO [ethanol]	1.3616 ± 0.0005
O [water]	1.3328 ± 0.0005
